This is an account of results in PMC12459314, “Subcutaneous administration of a novel TRPM8 antagonist reverses cold hypersensitivity while attenuating the drop in core body temperature” (British journal of pharmacology, 2024).

“And” between values parts separate entries of the source, which are not always exact repeats. Identical values can stand only once.

Data set [1] deals with T1, human TRPA1 (Homo sapiens, UniProt O75762).
T1 construct: expressed in transfected cells; host or cells: HEK293T
The experiment in a line: FlexStation Ca2+ flux assay in HEK293T cells transfected with human TRPA1. It is filed as cell-based. The protocol: (§1) The human embryonic kidney cell line (HEK293T, CRL-1573, RRID: CVCL_0045) was purchased from the American Type Culture Collection (Manassas, USA) and was maintained in Dulbecco’s Minimal Essential Medium (DMEM, Cellgro10013CV, Corning, Tewksbury, USA) that was supplemented with 10% fetal bovine serum (Gemini Bio-products), 2-mM L-glutamine (Invitrogen) and 100 U/mL penicillin and streptomycin (Invitrogen) and cultured in an incubator at 37°C, 5% CO2 and 95% humidity. Human TRPV1 and TRPA1 plasmid DNA (gift from D. Julius) were transiently bulk transfected individually into HEK293T cells using the FuGene HD transfection reagent (TFR, Promega, Madison, WI, USA) at a 3:1 ratio (TFR:DNA). Transfected cells were seeded at 10,000 cells per well in a volume of 25 μl into black walled collagen coated 384-well microtiter plates and cultured in an incubator at 37°C, 5% CO2 and 95% humidity for 48 h prior to the initiation of calcium mobilization experiments performed on a FlexStation 3 (Molecular Devices, Sunnyvale, CA, USA) platform equipped with a 16-channel robotic pipettor head and FLIPR tetra pipette tips. At 46 h post transfection, cell monolayers were preloaded with 25 μl of the FLIPR Calcium 6 dye (Molecular Devices) for 2 h in an incubator at 37°C, 5% CO2 and 95% humidity according to the manufacturer’s instructions. The plate was transferred to a FlexStation 3 microplate reader. Relative fluorescence units (RFUs) (Ex. 485 nm, Em 525 nm) were then acquired at 37°C in the kinetic mode. The run time for the agonist (1st) and antagonist (2nd) reads were 60 s each, for a total run time of 120 s, with an interval of 3.1 s between reads in the same well to allow all 16 wells in a column to be read sequentially, and the photomultiplier tube (PMT) level was set at medium, with 6 flashes per read. Baseline Fluo-6 RFUs were acquired for 18 s prior to the addition of compound in both the agonist and antagonist reads. For the first addition agonist read, the volume in the well was 50 μl, the pipette height was set at 40 μl, and 12.5 μl of the test compound was delivered at a speed of 2 μl·s^−1 after the baseline RFU’s acquisition period at 19 s, and the RFUs were acquired for an additional 41 s. For the second addition antagonist read, the volume in the well was 62.5 μl, the pipette height was set at 40 μl, and 12.5 μl of an EC80 agonist concentration was delivered at a speed of 2 μl/s after the baseline RFU’s acquisition period at 19 s, and the RFUs were acquired for an additional 41 s. The FlexStation 3 instrument settings, automated pipetting and data collection were all controlled by the SoftMax Pro software, version 7.1.2.
To analyse the agonist and antagonist Ca^2+ mobilization Fluo-6 RFU’s kinetic data, the RFU’s readings acquired throughout the 60-s acquisition period for each individual well were divided by the average RFU values acquired during the first 18-s baseline acquisition period from the same well to calculate a fold over baseline (FOB) ratio.
Background: Calcium flux is commonly read through the fluorescence of an indicator in the cells.

In data set [2] the target is T2, human TRPV1 (Homo sapiens, UniProt Q8NER1).
T2 construct: expressed in transfected cells; host or cells: HEK293T
The experiment in a line: FlexStation Ca2+ flux assay in HEK293T cells transfected with human TRPV1. It is filed as cell-based. The protocol:
as §1, with “Transfected cells were seeded at 10,000 cells per well in a volume of 25 μl into black walled collagen coated 384-well microtiter plates and cultured in an incubator at 37°C, 5% CO2 and 95% humidity for 48 h prior to the initiation of calcium mobilization experiments performed on a FlexStation 3 (Molecular Devices, Sunnyvale, CA, USA) platform equipped with a 16-channel robotic pipettor head and FLIPR tetra pipette tips. At 46 h post transfection, cell monolayers were preloaded with 25 μl of the FLIPR Calcium 6 dye (Molecular Devices) for 2 h in an incubator at 37°C, 5% CO2 and 95% humidity according to the manufacturer’s instructions.” left out, “The FlexStation 3 instrument settings, automated pipetting and data collection were all controlled by the SoftMax Pro software, version 7.1.2.” left out

Details of data set [3]: method as in Journigan et al., 2020. Conditions: intraplantar administration; ref Journigan et al., 2020; cited from earlier work.
Data set [4] in a line: Core body temperature and home cage activity by radiotelemetry (s.c., i.p.). The format is in vivo, mouse. The protocol:
Male and female C57Bl6J (Jackson Laboratories, Bar Harbor, USA, 8–12 weeks of age, 4 M:3F) were anaesthetised with isoflurane (2%–3% in 100% oxygen), and an HDX11 telemetry unit (Data Sciences) was inserted into the peritoneal cavity through a ventral midline incision. Animals were treated with buprenex (0.05 mg·kg^−1, s.c.every 8 h for 72 h) and enrofloxacin (2 mg·kg^−1, s.c.) and single-housed in a reverse light–dark cycle room (lights off 10 AM–10 PM). Mice were handled every day to acclimatise to injections, and experiments began 1 week later. All injections were performed between 1 and 2 PM. […] Body temperature was averaged into 5-min bins, whereas activity data were summed for the 5-min bin.

Data set [5] can be described thus: Core body temperature by radiotelemetry after i.c.v. administration. It is filed as in vivo, mouse. Particulars: 306 nmol per 1 μL i.c.v. As to the method:
A second set of male C57Bl6J mice (Jackson Laboratories, n = 8) was implanted with telemetry as described above and a 26-gauge brain cannula (Plastics One) targeted at the lateral ventricle using coordinates relative to Bregma: 0.3 mm caudal, 1.0 mm lateral, 3.0 mm ventral. This second procedure was also performed under isoflurane anesthesia. The brain cannula was secured to the skull with two screws and dental cement. Animals were treated with buprenex (0.05 mg·kg^−1, s.c. every 8 h for 48 h) and enrofloxacin (2 mg·kg^−1, s.c.), singly housed and handled daily as described above. A single i.c.v. injection was performed every other day in a randomized order and included: (1) Galanin-like peptide (3 nmol/1 μL), (2) VBJ103 (306 nmol/1 μL) and (3) VBJ103 vehicle (1 μL). Galanin-like peptide produced a decrease in body temperature in five of eight mice. Therefore, body temperature data in response to VBJ103 and vehicle are presented in these five mice. These studies were carried out with a single dose of VBJ103 (306 nmol/1 μL or ~4 mg·kg^−1), which was the highest dose achievable due to constraints of the injection volume and the solubility of VBJ103.

Data set [6] concerns human TRPM8. On the set-up: method as in Journigan et al., 2020. Conditions: ref Journigan et al., 2020, cited from earlier work.
For data set [7] the following is noted: ref Journigan et al, 2020; cited from earlier work.

T1 sequence (O75762 whole entry): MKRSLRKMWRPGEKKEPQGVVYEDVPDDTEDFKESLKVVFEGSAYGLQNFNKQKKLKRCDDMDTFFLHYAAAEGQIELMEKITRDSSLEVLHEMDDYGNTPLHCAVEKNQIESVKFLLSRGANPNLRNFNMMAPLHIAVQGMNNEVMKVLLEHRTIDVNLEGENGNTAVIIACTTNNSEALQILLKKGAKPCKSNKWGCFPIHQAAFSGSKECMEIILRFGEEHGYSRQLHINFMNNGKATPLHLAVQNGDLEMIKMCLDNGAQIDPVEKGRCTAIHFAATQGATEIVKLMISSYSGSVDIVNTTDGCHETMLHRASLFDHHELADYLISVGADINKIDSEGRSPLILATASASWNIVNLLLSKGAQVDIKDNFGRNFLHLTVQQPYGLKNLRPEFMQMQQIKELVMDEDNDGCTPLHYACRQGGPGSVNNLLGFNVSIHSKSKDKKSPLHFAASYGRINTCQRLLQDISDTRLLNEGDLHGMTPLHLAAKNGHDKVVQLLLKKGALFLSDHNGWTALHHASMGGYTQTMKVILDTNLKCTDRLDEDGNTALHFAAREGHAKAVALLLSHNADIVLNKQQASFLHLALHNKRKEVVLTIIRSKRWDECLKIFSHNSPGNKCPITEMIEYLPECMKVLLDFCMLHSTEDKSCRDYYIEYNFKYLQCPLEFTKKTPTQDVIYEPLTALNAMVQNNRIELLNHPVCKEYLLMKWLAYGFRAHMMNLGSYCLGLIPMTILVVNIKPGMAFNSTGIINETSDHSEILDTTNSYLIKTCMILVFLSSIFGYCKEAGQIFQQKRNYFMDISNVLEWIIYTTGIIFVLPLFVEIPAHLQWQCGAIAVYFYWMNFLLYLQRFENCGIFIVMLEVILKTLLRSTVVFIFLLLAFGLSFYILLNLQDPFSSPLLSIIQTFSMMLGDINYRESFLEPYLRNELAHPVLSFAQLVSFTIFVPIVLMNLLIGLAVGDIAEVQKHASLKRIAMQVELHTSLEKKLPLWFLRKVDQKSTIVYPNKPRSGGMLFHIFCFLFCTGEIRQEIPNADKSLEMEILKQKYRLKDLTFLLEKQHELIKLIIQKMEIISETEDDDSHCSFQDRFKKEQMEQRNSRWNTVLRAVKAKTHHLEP
T2 sequence (Q8NER1 whole entry): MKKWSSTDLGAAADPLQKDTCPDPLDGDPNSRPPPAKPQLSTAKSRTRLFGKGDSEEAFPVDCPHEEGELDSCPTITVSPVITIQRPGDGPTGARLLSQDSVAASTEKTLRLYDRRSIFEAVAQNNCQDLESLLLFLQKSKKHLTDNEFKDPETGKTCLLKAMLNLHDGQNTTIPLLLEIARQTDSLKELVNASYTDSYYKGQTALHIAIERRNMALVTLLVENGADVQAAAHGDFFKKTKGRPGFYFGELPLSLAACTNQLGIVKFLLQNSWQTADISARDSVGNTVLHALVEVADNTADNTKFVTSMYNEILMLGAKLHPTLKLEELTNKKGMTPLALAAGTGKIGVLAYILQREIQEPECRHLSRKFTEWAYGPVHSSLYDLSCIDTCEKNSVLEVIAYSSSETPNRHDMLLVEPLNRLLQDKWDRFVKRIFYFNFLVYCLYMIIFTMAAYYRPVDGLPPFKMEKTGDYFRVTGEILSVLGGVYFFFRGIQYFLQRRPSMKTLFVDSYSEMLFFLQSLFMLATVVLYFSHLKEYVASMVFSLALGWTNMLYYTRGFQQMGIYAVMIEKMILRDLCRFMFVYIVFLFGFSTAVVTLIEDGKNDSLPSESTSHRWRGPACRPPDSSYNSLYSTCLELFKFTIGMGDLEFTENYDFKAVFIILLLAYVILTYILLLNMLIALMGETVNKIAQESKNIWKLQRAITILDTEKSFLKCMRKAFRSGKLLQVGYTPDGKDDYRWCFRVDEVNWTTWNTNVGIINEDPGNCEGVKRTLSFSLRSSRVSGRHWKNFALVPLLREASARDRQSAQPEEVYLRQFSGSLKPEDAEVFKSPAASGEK

For the compound `O=C(NC1CCC2(CCCC2)CC1)c1ccc(-c2ccccc2)cc1` [VBJ103, N-(Spiro[4.5]decan-8-yl)-[1,1′-biphenyl]-4-carboxamide], the EC50 (usually the concentration that produces a half-maximal response) is 960 nM and 955 nM in data set [1] (Figure 1g experiment, without HC-030031); 1040 nM and > 1000 nM in data set [1] (agonist read). The “antagonist activity at TRPA1” value in data set [1] (against an EC80 concentration (10 μM) of AITC) is given as “no detectable antagonist activity”. In addition, the “shift in TRPA1 EC50” value in data set [1] (with versus without HC-030031 (10 μM)) is on record as 3.2 fold. Also, in data set [2] (compound alone), the “agonist activity at TRPV1” value is on record as “no apparent agonist activity”. In addition, the “inhibition of the Ca2+ signal at TRPV1” value in data set [2] (evoked with an EC80 concentration (0.1 μM) of capsaicin) is “Nor was there a detectable inhibition”. In data set [3], the “oxaliplatin-induced hypersensitivity to non-noxious cooling (acetone drop)” value is “dose-dependently suppresses”. In addition, the “drop in CBT versus vehicle” value in data set [4] (3 mg·kg−1 i.p.) is listed as “not different”. In addition, the “time for CBT to return to baseline values” in data set [4] (3 mg·kg−1 s.c.) stood at 223 ± 25 min; in data set [4] (10 mg·kg−1 s.c.), 262 ± 48 min; in data set [4] (30 mg·kg−1 s.c.), 380 ± 59 min. Further, the “change in home cage activity” value is “without any significant change” in data set [4] (3, 10 and 30 mg·kg−1 s.c.); “no detectable change” in data set [4] (3, 10 or 30 mg·kg−1 i.p.). The “fall in CBT” value is 1–2 °C and 2 °C in data set [4] (3, 10 and 30 mg·kg−1 s.c., over 180 min); “dose-dependent fall” in data set [4] (3, 10 or 30 mg·kg−1 i.p.). Moreover, in data set [4] (3, 10 or 30 mg·kg−1 i.p.), the “time of peak fall in CBT” value is not above 60 min. In addition, in data set [4] (10 and 30 mg·kg−1 i.p.), the “drop in CBT versus 3 mg·kg−1 and vehicle” value is on record as “significantly greater”. In data set [4] (100 and 300 mg·kg−1 s.c.), the “CBT or home cage activity compared to vehicle” value is reported as “did not alter”. Moreover, the “change in CBT compared to vehicle” value in data set [5] is given as “did not significantly (P > 0.05) alter”. In data set [6] (against menthol-stimulated currents), the IC50 (commonly the concentration needed to halve the response being measured) was 64 ± 2 nM. Moreover, the “selectivity for human TRPM8 versus TRPA1 and TRPV1” value in data set [6] (heterologously expressed channels) was ~ 10 fold. For the same compound, in data set [7], the “Mouse Liver microsomes, T1/2” value is reported as 30 min.
